Measurements taken from patent US20240254138A1, “TRICYCLIC PYRIMIDINES AS CYCLIN-DEPENDENT KINASE 7 (CDK7) INHIBITORS” (JANSSEN PHARMACEUTICA NV, priority 2021, published 2024).
Read-outs that look alike come from different tables or passages of the source.

Key:
[1] = molecular target: CDK7/cyclinH/MAT1 trimeric complex (Homo sapiens, UniProt P50613); test: In vitro CDK7 assay, potency of irreversible covalent inhibitors (kinact/KI), coupled PK/LDH ADP readout at 340 nm; conditions: for CDK7 (kinact/KI, M^−1*s^−1): potency of irreversible covalent inhibitors
CDK7/cyclinH/MAT1 trimeric complex, sequence (P50613 whole entry): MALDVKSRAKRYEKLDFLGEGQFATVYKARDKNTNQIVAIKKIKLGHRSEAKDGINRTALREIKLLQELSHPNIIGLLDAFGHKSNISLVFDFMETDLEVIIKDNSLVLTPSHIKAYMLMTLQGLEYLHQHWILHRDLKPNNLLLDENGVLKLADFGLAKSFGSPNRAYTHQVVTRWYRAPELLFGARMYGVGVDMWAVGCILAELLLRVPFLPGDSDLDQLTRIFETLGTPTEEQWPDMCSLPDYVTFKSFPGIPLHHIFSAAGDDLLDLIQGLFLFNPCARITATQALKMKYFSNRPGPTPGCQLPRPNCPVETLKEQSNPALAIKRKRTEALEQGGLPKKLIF
CDK7/cyclinH/MAT1 trimeric complex, sequence (P51946 whole entry partner): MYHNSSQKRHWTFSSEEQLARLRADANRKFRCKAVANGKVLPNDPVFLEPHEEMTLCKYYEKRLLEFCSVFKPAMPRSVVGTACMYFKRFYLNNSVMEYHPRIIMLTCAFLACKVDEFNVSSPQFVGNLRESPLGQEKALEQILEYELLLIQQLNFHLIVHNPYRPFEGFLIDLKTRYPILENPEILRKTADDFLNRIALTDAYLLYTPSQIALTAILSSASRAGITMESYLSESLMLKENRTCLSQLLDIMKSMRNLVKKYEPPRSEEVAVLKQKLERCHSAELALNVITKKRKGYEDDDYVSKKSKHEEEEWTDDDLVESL
CDK7/cyclinH/MAT1 trimeric complex, sequence (P51948 whole entry partner): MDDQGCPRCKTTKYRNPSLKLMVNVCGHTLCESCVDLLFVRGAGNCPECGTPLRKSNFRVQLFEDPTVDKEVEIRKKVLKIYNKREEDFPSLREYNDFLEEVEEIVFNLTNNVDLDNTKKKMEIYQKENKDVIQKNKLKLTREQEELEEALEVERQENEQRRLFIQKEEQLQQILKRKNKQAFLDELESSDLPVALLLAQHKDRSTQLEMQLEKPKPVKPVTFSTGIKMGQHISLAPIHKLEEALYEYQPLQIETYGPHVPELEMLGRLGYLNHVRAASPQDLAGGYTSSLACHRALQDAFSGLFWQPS

[2] = test system: RNA Polymerase II Serine 5 phosphorylation (Rpb1 CTD, downstream substrate of CDK7) in A549 cells; test: Imaging-based cellular RNA PolII Ser5 phosphorylation assay in A549 cells; format: cell-based, human; conditions: for IC50: Homo sapiens; for CDK7_A549 Wild-type CDK7 (pIC50): A549 cells
Procedure, shortened: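 A549 cells, seeded 1000/well in DMEM with 1% FBS and cultured 20 h, were treated with compound for 3 h at 37 °C. Ser5-phospho-Rpb1 CTD detected by immunofluorescence imaging after fixation and methanol permeabilization; IC50 from curve fit normalized to DMSO and 10 μM reference-compound controls.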

[3] = test system: RNA Polymerase II Serine 5 phosphorylation in A549 cells overexpressing CDK7-mutant (C312S); test: Imaging-based cellular RNA PolII Ser5 phosphorylation assay in A549 cells overexpressing CDK7-mutant (C312S); format: cell-based, human; conditions: for IC50: Homo sapiens; for CDK7_A549 mutant hCDK7(pIC50): A549 cells overexpressing CDK7-mutant (C312S)
Procedure, shortened: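 A549 cells overexpressing CDK7 C312S (with endogenous wild-type CDK7) were treated with compound for 3 h at 37 °C in 1% FBS medium. Phospho-Rpb1 CTD Ser5 was immunostained after fixation and imaged. IC50 came from curve fit of % control, normalised to DMSO and 10 μM reference-compound controls.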

[4] = CDK7 (20 nM enz.) (KI, μM), 20 nM enzyme
[5] = read-out: CDK7 (20 nM enz.) (kinact, s^−1), 20 nM enzyme
[6] = A549, A549 cells, wild-type CDK7, RNA PolII Ser5 phosphorylation, averaged over all measurements, read-out: CDK7_A549 Wild-type CDK7 (pIC50) (converted)
[7] = A549, A549 cells overexpressing CDK7-mutant (C312S), RNA PolII Ser5 phosphorylation, averaged over all measurements, read-out: CDK7_A549 mutant hCDK7(pIC50) (converted)
[8] = read-out: CDK7 (20 nM enz.) (kobs/[I], M^−1*s^−1), 20 nM enzyme
[9] = read-out: CDK7 (20 nM enz.) (kinact/KI, M^−1*s^−1), 20 nM enzyme
[10] = 1 mM ATP, room temperature, averaged values over all measurements
[11] = wild-type CDK7, RNA PolII Ser5 phosphorylation, averaged over all measurements
[12] = RNA PolII Ser5 phosphorylation, averaged over all measurements
[13] = CDK7 (KI(μM)), […], 1 mM ATP, room temperature, averaged values over all measurements
[14] = read-out: CDK7 (kinact, s^−1), kinact = maximal rate of inactivation, 1 mM ATP, room temperature, averaged values over all measurements
[15] = read-out: CDK7 (kinact/KI, M^−1*s^−1), potency of irreversible covalent inhibitors, 1 mM ATP, room temperature, averaged values over all measurements

Structure (SMILES)	Ki [1, 4] [µM]	kinact [1, 5] [s⁻¹]	IC50 [2, 6] [nM]	IC50 [3, 7] [µM]	kinact/KI [1, 9] [M⁻¹ s⁻¹]	also measured
CC#CC(=O)N1CC(N2CCC(c3cc4c(c(C#N)n3)O[C@@H](C)c3c(N5CCOCC5)ccnc3N4)CC2)C1 (single isomer, unassigned) [Compound 520]	0.00977	2.91e-05	158	> 10	–	CDK7 (20 nM enz.) (kinact/KI, M^−1*s^−1) ([1]; 20 nM enzyme): 2981 M⁻¹ s⁻¹
COC(=O)/C=C/C(=O)N1CC(N2CCC(c3cc4c(c(C)n3)OCc3c(-c5cnn(C)c5)ccnc3N4)CC2)C1 [Compound 431]	–	–	55	> 10	–	kinact/KI [1, 8]: 1170 M⁻¹ s⁻¹
CC#CC(=O)N1CC[C@@H](N2CC(c3cc4c(c(C5CC5)n3)O[C@@H](C)c3c(N5CCOCC5)ccnc3N4)C2)C1 (single isomer, unassigned) [Compound 472]	–	–	204	> 10	79.5	–
C=CC(=O)N1CC(N2CCC(c3cc4c(cn3)OCc3c(N5CCOCC5)ccnc3N4)CC2)C1 [Compound 137]	0.0382	6.41e-05	126	> 10	1680	–
C=CC(=O)N1CC(N2CCO[C@@H](c3cc(C)c4c(c3)Nc3nccc(C5CCOCC5)c3CO4)CC2)C1 (single isomer, unassigned) [Compound 221]	0.512	7.79e-05	282	> 10	152	–
C=CC(=O)N1CCC(N2CCC(c3cc4c(c(C)n3)O[C@@H](C)c3c(N5CCOCC5)ccnc3N4)CC2)CC1 (single isomer, unassigned) [Compound 411]	3.4	0.000106	288	> 10	31.3	–
C=CC(=O)N1CC(N2CCC(c3ccc4c(c3)Nc3nccc(C5CCOCC5)c3CO4)CC2)C1 [compound 15]	–	–	–	–	–	CDK7 (kinact/KI, M^−1*s^−1) [1, 10]: 320.6 M⁻¹ s⁻¹; CDK7_A549 Wild-type CDK7 (pIC50) [2, 11]: 7.26; CDK7_A549 mutant hCDK7(pIC50) [3, 12]: <5
C=CC(=O)N1CCC(N2CC(c3cc4c(c(C)n3)OCc3c(N5CCOCC5)ccnc3N4)C2)CC1 [Compound 165]	0.0638	–	–	–	–	kinact ([1]; read-out: CDK7 (20 nM enz.) (kinact, s^−1)): 5.16e-05 s⁻¹; kinact/KI ([1]; read-out: CDK7 (20 nM enz.) (kinact/KI, M^−1*s^−1)): 808 M⁻¹ s⁻¹; IC50 ([2]; A549, read-out: CDK7_A549 Wild-type CDK7 (pIC50) (converted)): 57.5 nM; IC50 ([3]; A549, read-out: CDK7_A549 mutant hCDK7(pIC50) (converted)): 6.03 µM
CC#CC(=O)N1CC(N2CCC(c3cc4c(c(C)n3)O[C@H](C)c3c(-c5cnn(C)c5)ccnc3N4)CC2)C1 (single isomer, unassigned) [Compound 541]	0.0182	4.94e-05	155	> 10	2710	–
C=CC(=O)N1CC[C@H](N2CC(c3cc4c(c(C)n3)OCc3c(-c5cnn(C)c5)ccnc3N4)C2)C1 (single isomer, unassigned) [Compound 199]	0.449	3.63e-05	288	> 10	80.8	–
C=CC(=O)N1CC(N2CC(c3cc4c(c(C)n3)OC(C)c3c(N5CCOCC5)ccnc3N4)C2)C1 (stereo not shown) [Compound 264]	0.0439	3.44e-05	~138	> 10	782	–
CC#CC(=O)N1CCC(N2CC(c3cc(C#N)c4c(c3)Nc3nccc(N5CCOCC5)c3[C@H](C)O4)C2)C1 (mixture of isomers) [Compound 494]	–	–	4070	> 10	3.14	–
C=CC(=O)N1CCC(N2CC(c3cc4c(c(C5CC5)n3)O[C@H](C)c3c(N5CCOCC5)ccnc3N4)C2)CC1 (single isomer, unassigned) [Compound 377]	0.0468	2.2e-05	50.1	5.75	469	–
C=CC(=O)N1CC(N2CC(c3cc4c(c(C#N)n3)OCc3c(N5CCOCC5)ccnc3N4)C2)C1 [Compound 290]	0.0265	3.61e-05	295	> 10	1360	–
C=CC(=O)N1CC[C@@H](N2CC(c3cc4c(c(C5CC5)n3)OCc3c(N5CCOCC5)ccnc3N4)C2)C1 (single isomer, unassigned) [Compound 427]	0.0447	–	–	–	–	CDK7 (20 nM enz.) (kinact, s^−1) ([1]; 20 nM enzyme): 7.839e-05 s⁻¹; CDK7 (20 nM enz.) (kinact/KI, M^−1*s^−1) ([1]; 20 nM enzyme): 1751.84 M⁻¹ s⁻¹; CDK7_A549 Wild-type CDK7 (pIC50) [2, 11]: 6.99; CDK7_A549 mutant hCDK7(pIC50) [3, 12]: <5
C=CC(=O)N1CC(N2CC(c3cc4c(c(C)n3)O[C@H](C)c3c(N5CCOCC5)ccnc3N4)C2)C1 (single isomer, unassigned) [Compound 270]	0.0518	3.7e-05	117	> 10	714	–
C=CC(=O)N1CC(N2CCC(c3ccc4c(c3)Nc3nccc(C5CCOCC5)c3[C@H](C)O4)CC2)C1 (single isomer, unassigned) [Compound 98]	0.39	5.61e-05	1260	> 10	144	–
C=CC(=O)N1CCC(N2CCC(c3cc(C)c4c(c3)Nc3nccc(-c5cnn(C)c5)c3CO4)CC2)CC1 [Compound 105]	0.0256	5.8e-05	16.2	2.57	2260	–
C=CC(=O)N1CC[C@H](N2CC(c3cc(C)c4c(c3)Nc3nccc(N5CCOCC5)c3[C@H](C)O4)C2)C1 (single isomer, unassigned) [Compound 231]	1.61	6.1e-05	380	> 10	37.8	–
C=CC(=O)N1CC(N2CCC(c3ccc4c(c3)Nc3ncc(C#N)c(N5CCOCC5)c3CO4)CC2)C1 [Compound 45]	–	–	1150	> 10	–	Ki [1, 13]: 0.123 µM; kinact [1, 14]: 0.000137 s⁻¹; kinact/KI [1, 15]: 1110 M⁻¹ s⁻¹
C=CC(=O)N1CC(N2CCC(c3ccc4c(c3)Nc3nccc(N5CCS(=O)(=O)CC5)c3CO4)CC2)C1 [compound 14]	0.13	7.07e-05	–	–	545	CDK7 (kinact/KI, M^−1*s^−1) [1, 10]: 710 M⁻¹ s⁻¹; CDK7_A549 Wild-type CDK7 (pIC50) [2, 11]: 6.4; CDK7_A549 mutant hCDK7(pIC50) [3, 12]: <5
C=CC(=O)N1CC[C@@H](N2CC(c3cc4c(c(C5CC5)n3)OCc3c(C5CCOCC5)ccnc3N4)C2)C1 (single isomer, unassigned) [Compound 445]	0.0844	6.94e-05	123	8.51	823	–
C=CC(=O)N1CC(N2CC[C@@H](c3ccc4c(c3)Nc3nccc(N5CCOCC5)c3CO4)[C@H](O)C2)C1 (mixture of isomers) [Compound 72]	0.412	6.82e-05	589	> 10	166	–
C=CC(=O)N1CC(N2[C@@H]3CC[C@H]2C[C@H](c2ccc4c(c2)Nc2nccc(N5CCOCC5)c2CO4)C3)C1 [Compound 54]	–	–	145	8.13	–	Ki [1, 13]: 0.1 µM; kinact [1, 14]: 0.0001 s⁻¹; kinact/KI [1, 15]: 997 M⁻¹ s⁻¹
C=CC(=O)N1CC(N2CCC(c3cc(C#N)c4c(c3)Nc3nccc(N5CCOCC5)c3[C@@H](C)O4)CC2)C1 (single isomer, unassigned) [Compound 354]	–	–	15.1	4.57	–	kinact/KI [1, 8]: 2670 M⁻¹ s⁻¹
C=CC(=O)N1CC[C@H](N2CCC(c3cc(C)c4c(c3)Nc3nccc(-c5cnn(C)c5)c3CO4)CC2)C1 (single isomer, unassigned) [Compound 138]	–	–	28.8	~3.72	–	kinact/KI [1, 8]: 1330 M⁻¹ s⁻¹
C=CC(=O)N1CC(N2CC[C@H](c3ccc4c(c3)Nc3nccc(N5CCOCC5)c3CO4)[C@@H](F)C2)C1 (mixture of isomers) [Compound 226]	0.67	6.76e-05	–	–	–	CDK7 (20 nM enz.) (kinact/KI, M^−1*s^−1) ([1]; 20 nM enzyme): 100.867 M⁻¹ s⁻¹; CDK7_A549 Wild-type CDK7 (pIC50) [2, 11]: 6.55; CDK7_A549 mutant hCDK7(pIC50) [3, 12]: <5
CC#CC(=O)N1CC(N2CC(c3cc4c(c(C)n3)O[C@@H](C)c3c(C5CCOCC5)ccnc3N4)C2)C1 (single isomer, unassigned) [Compound 487]	–	–	> 10000	> 10	1.54	–
C=CC(=O)N1CC(N2CCC(c3ccc4c(c3)Nc3nccc(N5CCOCC5)c3C(C)O4)CC2)C1 (stereo not shown) [Compound 22]	0.0524	7.22e-05	56.2	> 10	1870	kinact/KI [1, 15]: 52.4 M⁻¹ s⁻¹
C=CC(=O)N1CC(N2CC(c3cc4c(c(C(F)(F)F)n3)OCc3c(N5CCOCC5)ccnc3N4)C2)C1 [Compound 235]	–	–	70.8	9.55	–	CDK7 (20 nM enz.) (kobs/[I], M^−1*s^−1) ([1]; 20 nM enzyme): 962.5 M⁻¹ s⁻¹
